From patent EP0278661A1, “A thiophosphoric acid ester as an insecticide, nematocide and acaricide” (priority 1987, dated 1988)

Tests used:
[1] = Acute oral toxicity in mouse (mortality); conditions: in vivo; oral (stomach sound), 100 mg/kg, ICR mouse, observed for 7 days, 5 head per group; read-out: Mortality (%) at the dose of 100 mg/kg
Method: After fasting of about 24 hours, ICR series mouse was weighed by an electronic balance. A stomack sound for mouse was attached to a syringe filled with test solution, the syringe end was slid to innermost of the mouse's throat to insert it to the stomack, and a definite amount of the test solution was injected. 4 Hours after the administration, a bait and water were given to the mouse for 7 days to observe a mortality (5 head per group).

[2] = test system: root-knot nematodes (Meloidogyne sp.); assay: Soil treatment test against root-knot nematodes on tomato plants (degree of root-knot); type: in vivo; design: key: -: No settlement; - to +: Not more than 10% as compared with untreated plot; +: 10% - 40% as compared with untreated plot; ++: 40% - 80% as compared with untreated plot; +++: The same as or more than untreated plot; conditions: observed three weeks after planting
Method: The emulsifiable concentrate of each test compound formulated according to Formulation example 1 was diluted with water, and 5 ml of the resulting aqueous dilute liquor was mixed with 600 g of soil contaminated with root-knot nematodes (Meloidogyne sp.) to make the concentration of active ingredient in soil 4 or 1 ppm. The soil was placed in a polyethylene cup of 12 cm in diameter and 8 cm in height, and three tomato plants of 3 to 4 leaf stage were planted.

[3] = test system: southern corn rootworm (Diabrotica undecimpunctata howardi BABER); assay: Soil treatment test against southern corn rootworm larvae (mortality); type: in vivo; conditions: 48 h, 1 ppm active ingredient in soil, third instar larvae, two days after liberation
Method: The emulsifiable concentrate of each test compound formulated according to Formulation example 1 was diluted with water, and 5 ml of the resulting aqueous dilute liquor was mixed with 50 g of soil to make the concentration of active ingredient in soil 1 ppm. The soil was then placed in a polyethylene cup of 5.6 cm in diameter and 5.8 cm high, and two pieces of corn having roots of 2 to 3 cm long were planted. At the same time, ten third instar larvae of southern corn rootworm (Diabrotica undecimpunctata howardi BABER) were liberated in the cup. Two days after liberation, the number of the dead and alive larvae was counted to obtain mortality (%).

[4] = test system: carmine spider mite (Tetranychus cinnabarinus); assay: Spray and soil drench test against carmine spider mite on kidney bean (degree of damage); type: in vivo; design: key: -: Little damage is observed.; +: Slight damage is observed.; ++: Same damage as in the untreated plot is observed; conditions: 500 ppm spray plus soil drench, examined after 8 days
Method: Female adults of carmine spider mite (Tetranychus cinnabarinus) were made parasitic on the leaves of potted kidney bean in a primary leaf stage, at a rate of 10 adults per leaf, which had elapsed seven days after sowing, and stored in a constant-temperature room kept at 25°C. After six days, 15 ml of a dilute solution, previously prepared by diluting the emulsifiable concentrate of the following test compounds obtained according to Formulation example 1 with water so that the active ingredient concentration was 500 ppm, was sprayed thereon by means of a turn table. At the same time, soil drench was carried out with 2 ml of the dilute solution. After 8 days, the degree of damage of each kidney bean by mites was examined.
The degree of damage was classified into three stages, -, + and ++. - : Little damage is observed. + : Slight damage is observed. ++ : Same damage as in the untreated plot is observed.

[5] = concentration in the soil 1 ppm
[6] = concentration in the soil 4 ppm

| SMILES | mortality at 168 h [1] | Extent of settlement [2, 5] | Extent of settlement [2, 6] | mortality at 1 ppm [3] | Degree of damage [4] |
| --- | --- | --- | --- | --- | --- |
| CCOP(=O)(Oc1ccccc1)SC(C)C (stereo not drawn) [(B)] | 100% | +++ | + (10% - 40% as compared with untreated plot) | 0% |  |
| CCOP(=O)(Oc1ccccc1)SC(C)(C)C (stereo not drawn) [Present compound, S-tert-butyl O-ethyl O-phenyl phosphorothiolate] | 0% | - to + (Not more than 10% as compared with untreated plot) | - | 100% | - |
| CCOP(=O)(Oc1ccccc1)SC(C)CC (stereo not drawn) [(C)] | 100% | +++ | - to + (Not more than 10% as compared with untreated plot) |  |  |
| Cc1cc(Cl)ccc1/N=C/N(C)C [Chlorodimeform] |  |  |  |  | + |
| CCCSP(=O)(OCC)Oc1ccccc1 (stereo not drawn) [(A)] | 100% |  |  | 70% |  |
